Test: Example 3: phase 3 trial, enavogliflozin 0.3 mg vs dapagliflozin 10 mg once a day for 24 weeks added to metformin and gemigliptin in patients with type 2 diabetes (same endpoints, rescue drug)
Format: in vivo, human
Procedure: 1) when Metformin (≥1,000 mg/Day) was Administered at a Constant Dose for at Least 8 Weeks Prior to Pre-Visit (Pre-Screening) • Metformin (≥1,000 mg/day) and gemigliptin (50 mg/day) were co-administered during the 8-week stabilization period. […] 4) when Metformin (≥1,000 mg/Day) and Gemigliptin (50 mg/Day) were Co-Administered at Constant Doses for at Least 8 Weeks Prior to Pre-Visit (Prescreening) • Without a separate stabilization period, Pre-visit (pre-screening) was Visit 1 (screening).
Subjects who met the inclusion/exclusion criteria continued to receive metformin and gemigliptin while receiving a placebo of the clinical trial drug in a single-blind (subject-blinded) state for a 2-week run-in period.
Here, the randomized subjects were stratified according to the administration therapy (co-administration with two or less agents (one or two agents) or three or more agents) of a conventional hypoglycemic agent (before washout of another hypoglycemic agent) within 24 weeks prior to obtaining written informed consent and by an HbA1c value (<8% or ≥8%) at Visit 1 (screening) measured in the central laboratory.
The randomized subjects were administered two tablets of the clinical trial drug corresponding to each administration group once a day, and then visited the institution at weeks 6, 12, 18, and 24 during the 24-week administration period to conduct efficacy and safety assessments. In addition, during the clinical trial period, they were instructed to exercise regularly and control their diet without changing their daily life patterns.
• 1) Change in HbA1c at week 24 after administration of clinical trial drug compared to Visit 2 (randomization)
• 1) Change in HbA1c at each time point of weeks 6, 12, and 18 after administration of clinical trial drug compared to Visit 2 (randomization) • 2) Change in FPG at each time point of weeks 6, 12, 18, and 24 after administration of clinical trial drug compared to Visit 2 (randomization) • 3) Proportion of subjects achieving HbA1c<7% at each time point of weeks 6, 12, 18, and 24 after administration of clinical trial drug • 4) Proportion of subjects achieving HbA1c<6.5% at each time point of weeks 6, 12, 18, and 24 after administration of clinical trial drug • 5) Proportion of subjects achieving therapeutic response (HbA1c change (HbA1c at Visit 2—HbA1c at each evaluation time point)>0.5% or HbA1c<7% at each evaluation time point compared to Visit 2 (randomization)) at each time point of weeks 6, 12, 18, and 24 after administration of clinical trial drug • 6) Proportion of subjects achieving therapeutic response (HbA1c change (HbA1c at Visit 2—HbA1c at each evaluation time point)>0.7% or HbA1c<7% at each evaluation time point compared to Visit 2 (randomization)) at each time point of weeks 6, 12, 18, and 24 after administration of clinical trial drug • 7) Proportion of subjects achieving therapeutic response (HbA1c change (HbA1c at Visit 2—HbA1c at each evaluation time point)>1% or HbA1c<7% at each evaluation time point compared to Visit 2 (randomization)) at each time point of weeks 6, 12, 18, and 24 after administration of clinical trial drug

[1] = week 6, per-protocol set, enavogliflozin 0.3 mg, dapagliflozin 10 mg
[2] = week 12, modified per-protocol set 1, enavogliflozin 0.3 mg, dapagliflozin 10 mg
[3] = week 12, modified per-protocol set 2
[4] = week 12, modified per-protocol set 2, enavogliflozin 0.3 mg, dapagliflozin 10 mg
[5] = week 12, per-protocol set, enavogliflozin 0.3 mg, dapagliflozin 10 mg

CCOc1ccc(Cc2cc([C@@H]3O[C@H](CO)[C@@H](O)[C@H](O)[C@H]3O)ccc2Cl)cc1 [Dapagliflozin, reference compound]
HbA1c, Median [1]: 6.96% | Subjects achieving HbA1c target of <6.5%, (%) [1]: 15.57% | Subjects achieving HbA1c target of <7%, % [1]: 51.64% | body weight, Median [1]: 63.90 kg | Subjects achieving therapeutic glycemic response 1, % (week 6, per-protocol set, response 1 = HbA1c change >0.5% or HbA1c <7%, enavogliflozin 0.3 mg, dapagliflozin 10 mg): 81.97% | Subjects achieving therapeutic glycemic response 2, % (week 6, per-protocol set, response 2 = HbA1c change >0.7% or HbA1c <7%, enavogliflozin 0.3 mg, dapagliflozin 10 mg): 76.23% | Subjects achieving therapeutic glycemic response 3, % (week 6, per-protocol set, response 3 = HbA1c change >1% or HbA1c <7%, enavogliflozin 0.3 mg, dapagliflozin 10 mg): 63.93% | FPG change from baseline, LS mean (SE) (week 12): −24.42(1.50) mg/dL | HDL-C change from baseline, LS mean (SE) (week 12): 2.84(0.60) mg/dL | HOMA-β change from baseline, LS mean (SE) (week 12): 5.23(1.90) | HbA1c change from baseline, LS mean (SE) (week 12): −0.83(0.04) % p | LDL-C change from baseline, LS mean (SE) (week 12): 2.71(1.75) mg/dL | UACR change from baseline, LS mean (SE) (week 12): −11.76(4.47) g/kg | UGCR change from baseline, LS mean (SE) (week 12): 44.84(2.02) mg/mg | adiponectin change from baseline, LS mean (SE) (week 12): 0.70(0.33) μg/mL | body weight change from baseline, LS mean (SE) (week 12): −2.71(0.19) kg | diastolic blood pressure change from baseline, LS mean (SE) (week 12): −2.26(0.66) mmHg | fasting C-peptide change from baseline, LS mean (SE) (week 12): −0.07(0.02) ng/ml | leptin change from baseline, LS mean (SE) (week 12): −1.69(0.47) ng/ml | systolic blood pressure change from baseline, LS mean (SE) (week 12): −5.06(0.85) mmHg | total cholesterol change from baseline, LS mean (SE) (week 12): 5.40(1.98) mg/dL | triglyceride change from baseline, LS mean (SE) (week 12): −12.02(5.12) mg/dL | Change from baseline in HDL-C, ANCOVA LS mean [2]: 2.84 mg/dL | Change from baseline in HDL-C, Mean [2]: 2.65 mg/dL | Change from baseline in HDL-C, Median [2]: 2.00 mg/dL | Change from baseline in LDL-C, ANCOVA LS mean [2]: 2.71 mg/dL | Change from baseline in LDL-C, Mean [2]: 2.45 mg/dL | Change from baseline in LDL-C, Median [2]: 4.00 mg/dL | Change from baseline in total cholesterol, ANCOVA LS mean [2]: 5.40 mg/dL | Change from baseline in total cholesterol, Mean [2]: 4.61 mg/dL | Change from baseline in total cholesterol, Median [2]: 6.00 mg/dL | Change from baseline in triglycerides, ANCOVA LS mean [2]: 12.02 mg/dL | Change from baseline in triglycerides, Mean [2]: -16.03 mg/dL | Change from baseline in triglycerides, Median [2]: -6.00 mg/dL | Fasting HDL-C, Mean [2]: 50.08 mg/dL | Fasting HDL-C, Median [2]: 49.00 mg/dL | Fasting LDL-C, Mean [2]: 79.86 mg/dL | Fasting LDL-C, Median [2]: 72.50 mg/dL | Fasting total cholesterol, Mean [2]: 148.41 mg/dL | Fasting triglycerides, Mean [2]: 116.46 mg/dL | Fasting triglycerides, Median [2]: 104.50 mg/dL | fasting Total cholesterol, Median [2]: 140.50 mg/dL | Change from baseline in diastolic blood pressure, ANCOVA LS mean [3]: −2.26 mmHg | Change from baseline in diastolic blood pressure, Mean [3]: −1.88 mmHg | Change from baseline in diastolic blood pressure, Median [3]: −1.00 mmHg | Diastolic blood pressure, Mean [3]: 71.99 mmHg | Diastolic blood pressure, Median [3]: 72.00 mmHg | Change from baseline in systolic blood pressure, ANCOVA LS mean [4]: −5.06 mmHg | Change from baseline in systolic blood pressure, Mean [4]: −4.43 mmHg | Change from baseline in systolic blood pressure, Median [4]: −4.00 mmHg | Systolic blood pressure, Mean [4]: 119.51 mmHg | Systolic blood pressure, Median [4]: 120.00 mmHg | Adiponectin, Mean (week 12, per-protocol set): 6.97 µg/mL | Adiponectin, Median (week 12, per-protocol set): 6.27 µg/mL | Change from baseline in HOMA-IR, ANCOVA LS mean (week 12, per-protocol set): −1.05 | Change from baseline in HOMA-IR, Mean (week 12, per-protocol set): −1.06 | Change from baseline in HOMA-IR, Median (week 12, per-protocol set): −0.76 | Change from baseline in HOMA-β, ANCOVA LS mean (week 12, per-protocol set): 5.23 | Change from baseline in HOMA-β, Mean (week 12, per-protocol set): 4.70 | Change from baseline in HOMA-β, Median (week 12, per-protocol set): 3.50 | Change from baseline in UACR, ANCOVA LS mean (week 12, per-protocol set): -11.76 g/kg | Change from baseline in UACR, Mean (week 12, per-protocol set): -7.42 g/kg | Change from baseline in UACR, Median (week 12, per-protocol set): 0.20 g/kg | Change from baseline in UGCR, ANCOVA LS mean (week 12, per-protocol set): 44.84 mg/mg | Change from baseline in UGCR, Mean (week 12, per-protocol set): 43.19 mg/mg | Change from baseline in UGCR, Median (week 12, per-protocol set): 41.69 mg/mg | Change from baseline in adiponectin, ANCOVA LS mean (week 12, per-protocol set): 0.70 µg/mL | Change from baseline in adiponectin, Mean (week 12, per-protocol set): 0.63 µg/mL | Change from baseline in adiponectin, Median (week 12, per-protocol set): 0.43 µg/mL | Change from baseline in leptin, ANCOVA LS mean (week 12, per-protocol set): -1.69 ng/mL | Change from baseline in leptin, Mean (week 12, per-protocol set): -1.82 ng/mL | Change from baseline in leptin, Median (week 12, per-protocol set): -0.96 ng/mL | HOMA-IR (insulin resistance), Mean (week 12, per-protocol set): 1.80 | HOMA-IR (insulin resistance), Median (week 12, per-protocol set): 1.55 | HOMA-β (beta-cell function), Mean (week 12, per-protocol set): 45.17 | HOMA-β (beta-cell function), Median (week 12, per-protocol set): 38.20 | Leptin, Mean (week 12, per-protocol set): 9.03 ng/mL | Leptin, Median (week 12, per-protocol set): 7.69 ng/mL | UACR, Mean (week 12, per-protocol set): 27.28 g/kg | UACR, Median (week 12, per-protocol set): 11.80 g/kg | UGCR, Mean (week 12, per-protocol set): 44.72 mg/mg | UGCR, Median (week 12, per-protocol set): 41.80 mg/mg | Body weight, Mean [5]: 64.64 kg | Change from baseline in FPG, ANCOVA LS mean [5]: -24.42 mg/dL | Change from baseline in FPG, Mean [5]: -25.28 mg/dL | Change from baseline in FPG, Median [5]: -20.00 mg/dL | Change from baseline in HbA1c, ANCOVA LS mean [5]: −0.83 % p | Change from baseline in HbA1c, Mean [5]: −0.87 % p | Change from baseline in HbA1c, Median [5]: −0.85 % p | Change from baseline in body weight, ANCOVA LS mean [5]: -2.71 kg | Change from baseline in body weight, Mean [5]: -2.58 kg | Change from baseline in body weight, Median [5]: -2.50 kg | Change from baseline in fasting C-peptide, ANCOVA LS mean [5]: -0.07 ng/mL | Change from baseline in fasting C-peptide, Mean [5]: -0.06 ng/mL | Change from baseline in fasting C-peptide, Median [5]: -0.03 ng/mL | FPG, Mean [5]: 115.24 mg/dL | FPG, Median [5]: 112.00 mg/dL | Fasting C-peptide, Mean [5]: 0.63 ng/mL | Fasting C-peptide, Median [5]: 0.60 ng/mL | HbA1c, Mean [5]: 6.96% | HbA1c, Median [5]: 6.84% | Subjects achieving HbA1c target of <6.5%, (%) [5]: 17.07%
